Results: patent publication US8012959B2, “Diaminopyrimidinecarboxamide derivative” (Astellas Pharma Inc., priority 2002, dated 2011)

Assays:
[1] = system: antigen-induced eosinophil infiltration; experiment: Mouse asthma model (OA-sensitized, antigen-induced eosinophil infiltration in alveolar lavage fluid); format: in vivo; details: hydrochloride, oral administration, 1 mg/kg, for 3 days, female Balb/c mice
Procedure: Evaluation Using Mouse Asthma Model
Active sensitization of female Balb/c mice were carried out by intraperitoneally administering ovalbumin (OA) and an adjuvant, aluminum hydroxide gel (alum), twice. Mice were exposed to OA by inhalation 12 days after the initial sensitization and sacrificed by bloodletting 72 hours after the exposure, and then alveolar lavage was carried out. A compound to be tested or a control, 0.5% methyl cellulose, was orally administered for 3 days from before the OA exposure to before the alveolar lavage. After the measurement of total white blood cell count in the alveolar lavage fluid, cell smear preparations were stained to calculate existing ratio of eosinophil based on its morphological characteristics. The total number of eosinophils was calculated from the total white blood cell count and existing ratio of respective kinds of cells.

[2] = system: neutrophil infiltration; experiment: SO2 gas-induced intra-alveolar neutrophil infiltration model; format: in vivo; details: hydrochloride, oral administration, 10 mg/kg, for 2 days, male C57BL/6 mice, SO2 gas 600 ppm, alveolar lavage fluid
Procedure: Evaluation Using SO2 Gas-induced Intra-alveolar Neutrophil Infiltration Model Mouse Asthma Model
Male C57BL/6 mice were exposed to SO2 gas (600 ppm) for 3 hours and sacrificed by bloodletting 48 hours after the exposure, and then alveolar lavage was carried out. After the measurement of total white blood cell count in the alveolar lavage fluid, cell smear preparations were stained to calculate existing ratio of neutrophil based on its morphological characteristics. The number of neutrophils was calculated from the total white blood cell count and existing ratio of respective cells. A compound to be tested or a control, 0.5% methyl cellulose, was orally administered for 2 days from just before the exposure or just after the exposure to before the alveolar lavage.

[3] = molecular target: T1, STAT 6 (Homo sapiens, UniProt P42226); experiment: STAT 6 tyrosine phosphorylation in IL-4-stimulated H292 cell (western blotting); format: cell-based; details: 1 μM compound, 10 ng/ml human IL-4, disappearance of the about 110 kDa band
T1 construct: host or cells: H292
T1 sequence (P42226 1-847): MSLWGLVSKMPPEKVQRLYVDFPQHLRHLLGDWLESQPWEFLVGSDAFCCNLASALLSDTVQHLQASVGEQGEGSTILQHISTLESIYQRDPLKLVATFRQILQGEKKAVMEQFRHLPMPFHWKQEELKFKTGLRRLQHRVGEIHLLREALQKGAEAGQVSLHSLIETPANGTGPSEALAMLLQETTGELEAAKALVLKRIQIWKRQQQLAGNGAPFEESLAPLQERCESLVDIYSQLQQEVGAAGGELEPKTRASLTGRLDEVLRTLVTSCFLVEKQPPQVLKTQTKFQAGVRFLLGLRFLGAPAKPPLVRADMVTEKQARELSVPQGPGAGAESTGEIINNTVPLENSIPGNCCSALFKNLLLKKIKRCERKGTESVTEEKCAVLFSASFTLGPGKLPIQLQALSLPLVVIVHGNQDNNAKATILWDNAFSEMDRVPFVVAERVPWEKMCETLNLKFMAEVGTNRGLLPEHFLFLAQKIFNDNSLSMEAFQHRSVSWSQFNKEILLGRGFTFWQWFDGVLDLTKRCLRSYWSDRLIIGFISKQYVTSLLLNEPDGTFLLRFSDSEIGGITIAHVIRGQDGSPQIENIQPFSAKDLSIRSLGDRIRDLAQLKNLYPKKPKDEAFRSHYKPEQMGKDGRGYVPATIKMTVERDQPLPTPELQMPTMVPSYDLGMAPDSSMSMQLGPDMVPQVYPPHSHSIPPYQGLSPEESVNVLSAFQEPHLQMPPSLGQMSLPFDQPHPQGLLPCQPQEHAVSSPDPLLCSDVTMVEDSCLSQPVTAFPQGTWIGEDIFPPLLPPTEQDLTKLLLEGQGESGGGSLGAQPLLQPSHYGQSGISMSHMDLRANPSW
Procedure: Measurement of STAT 6 Tyrosine Phosphorylation
The H292 cell (ATCC) (5×10^5 cells/0.5 ml) was inoculated into a 12 well plate (IWAKI) and cultured overnight, and then stimulation with 10 ng/ml of human IL-4 (Genzyme techne) was carried out. In the case of the evaluation of compounds, compound dilutions were added to the wells 20 minutes before the IL-4 stimulation. Also, regarding the dilution of compounds, dilution was carried out using 10% FBS-containing RPMI 1640 such that the final concentration of DMSO in which each compound was dissolved became 0.1% or less. This was washed three times with ice-cooled physiological phosphate buffer 20 minutes after the IL-4 stimulation. After the washing, 100 μl/well of a cell lysis solution (TNE buffer: 10 mM Tris-HCl pH 7.8, 1% NP-40, 0.15 M NaCl, 1 mM EDTA, 10 μg/ml aprotinin, 1 mM NaF and 1 mM Na3VO4) was added. The cell lysate was recovered, and 15 μl thereof was subjected to western blotting after SDS electrophoresis using an anti-tyrosine phosphorylated STAT 6 antibody (Cell Signaling). Whether or not the tyrosine phosphorylation band of about 110 kDa is disappeared, which is IL-4 stimulation-dependently detected, was judged. Also, uniform transference of the STAT 6 protein was confirmed using the same transfer membrane by western blotting which used an anti-STAT 6 antibody (SantaCruz).

| SMILES | inhibition of antigen-induced eosinophil infiltration [1] | inhibition of neutrophil infiltration [2] | inhibition of STAT 6 tyrosine phosphorylation [3] |
| --- | --- | --- | --- |
| NC(=O)c1cnc(Nc2ccc(N3CCOCC3)cc2)nc1NCc1ccccc1 [Example 3, 4-benzylamino-2-{[4-(morpholin-4-yl)phenyl]amino}pyrimidine-5-carboxamide] | about 60% | about 70% | completely inhibited |
| COc1ccccc1CNc1nc(Nc2ccc(N3CCOCC3)cc2)ncc1C(N)=O [Example 35] | – | – | completely inhibited |
| Cc1cccc(Nc2nc(NCCc3ccc(O)c(Cl)c3)ncc2C(N)=O)c1 [Production Example 99] | – | – | completely inhibited |
